In publication PMC9841532, “Exploring the Effect of Halogenation in a Series of Potent and Selective A2B Adenosine Receptor Antagonists” (Journal of Medicinal Chemistry, 2022):
≈ marks a conversion by molar mass, not a printed value.

target: T1, hA1AR (Homo sapiens, UniProt P30542); test: Radioligand binding competition, [3H]DPCPX, membranes from CHO-A1 cells; details: displacement of specific [3H]DPCPX binding in human CHO cells, n = 3; read-out: Ki hA1
T1 sequence (P30542 1-326): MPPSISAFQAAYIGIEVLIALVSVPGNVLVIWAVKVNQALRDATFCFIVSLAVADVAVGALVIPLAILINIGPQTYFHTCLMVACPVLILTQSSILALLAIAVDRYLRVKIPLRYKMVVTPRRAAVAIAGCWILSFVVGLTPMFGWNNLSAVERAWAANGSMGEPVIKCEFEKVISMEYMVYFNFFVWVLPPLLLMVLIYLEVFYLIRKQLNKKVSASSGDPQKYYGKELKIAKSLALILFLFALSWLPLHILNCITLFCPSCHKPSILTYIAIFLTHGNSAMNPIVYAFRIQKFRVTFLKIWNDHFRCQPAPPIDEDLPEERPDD
How it was run: (§1)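 Racemates, plus selected enantiomers after chiral resolution, were tested at 25 °C, with a 60 min incubation for one subtype and 30 min for others. Non-specific binding was defined with 10 μM or 100 μM R-PIA. Bound radioactivity was counted after washing and filtration.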

| Compound | Ki [nM] |
| --- | --- |
| CC1=C(C(=O)OC(C)C)C(c2ccco2)n2c(nc3ccc(Cl)cc32)N1 (stereo not shown) [15j] | 667 ± 12 |

tested on: not listed separately; test: Solubility determination (nephelometry); type: physicochemical; details: 1:99 DMSO/PSB buffer, PBS pH 7, 37 °C
Protocol: The solubility of selected compounds was evaluated by following a previously described method.[31] A 10 mM stock solution of the compound was serially diluted in 100% DMSO, and 2.5 μL of this solution was added to a 384-well UV-transparent plate (Greiner) containing 47.5 μL of PBS (pH = 7). The plate was incubated at 37 °C for 4 h, and the light scattering was measured in a NEPHELOstar Plus reader (BMG LABTECH). The data was fitted to a segmented linear regression for measuring the compound solubility.

| Compound | solubility at 4 h [µM] |
| --- | --- |
| CC1=C(C(=O)OC(C)C)C(c2ccco2)n2c(nc3ccc(Cl)cc32)N1 (stereo not shown) [15j] | 58.2 (≈ 21.6 µg/mL) |
| CC(=O)[C@H]1CC[C@H]2[C@@H]3CCC4=CC(=O)CC[C@]4(C)[C@H]3CC[C@]12C [progesterone, reference compound] | 6.7 (≈ 2.11 µg/mL) |

target: T2, hA3AR (Homo sapiens, UniProt P0DMS8); test: Radioligand binding competition, [3H]NECA, membranes from HeLa-A3 cells; details: 1 μM, [3H]NECA, human HeLa cells, n = 2
T2 construct: expressed in transfected cells; host or cells: HeLa (HeLa-A3) cell membranes
T2 sequence (P0DMS8 1-318): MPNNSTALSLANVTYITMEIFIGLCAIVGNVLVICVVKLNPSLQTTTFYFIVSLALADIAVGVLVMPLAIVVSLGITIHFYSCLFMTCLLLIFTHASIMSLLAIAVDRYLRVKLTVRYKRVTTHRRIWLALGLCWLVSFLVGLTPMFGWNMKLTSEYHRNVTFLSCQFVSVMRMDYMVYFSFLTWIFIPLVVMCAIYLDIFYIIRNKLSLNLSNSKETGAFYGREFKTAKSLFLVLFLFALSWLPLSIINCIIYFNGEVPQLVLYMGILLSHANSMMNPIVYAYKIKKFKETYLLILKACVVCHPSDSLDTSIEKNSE
How it was run: as §1

| Compound | % at 1 μM hA3 (percentage displacement of specific binding) [%] |
| --- | --- |
| CC1=C(C(=O)OC(C)C)C(c2ccco2)n2c(nc3ccc(Cl)cc32)N1 (stereo not shown) [15j] | 5 |

target: T1, hA1AR; test: not given; details: prototype series, [3H]DPCPX, human CHO cells ref 30, 31; cited from earlier work

| Compound | % at 1 μM hA1 (percentage displacement of specific binding) [%] |
| --- | --- |
| CC1=C(C(=O)OC(C)C)C(c2ccoc2)n2c(nc3ccccc32)N1 (stereo not shown) [IV] | 12 |

target: T2, hA3AR; test: not given; details: prototype series, [3H]NECA, human HeLa cells ref 30, 31; cited from earlier work

| Compound | % at 1 μM hA3 (percentage displacement of specific binding) [%] |
| --- | --- |
| CC1=C(C(=O)OC(C)C)C(c2ccoc2)n2c(nc3ccccc32)N1 (stereo not shown) [IV] | 2 |

target: T3, CYP3A4 (Homo sapiens, UniProt P08684); test: CYP3A4 inhibition (fluorescence, substrates DBF or 7-BFC); type: biochemical; details: 10 μM, substrate 7-benzyloxy-4-trifluoromethyl-coumarin
T3 construct: host or cells: insect cell microsomes
Protocol: To identify potential metabolic liabilities within the series here documented, the selected A2BAR antagonists were tested in vitro for CYP3A4 inhibitory activity.
The inhibitory activity of selected compounds was evaluated by following a previously described method.[31] […] The plate was then pre-incubated at 37 °C for 5 min and the reaction initiated by the addition of a pre-warmed enzyme/substrate (E/S) mix. The E/S mix contained buffer (KH2PO4), c-DNA-expressed P450 in insect cell microsomes, substrate (DBF: dibenzylfluorescein or 7-BFC: 7-benzyloxy-4-trifluoromethyl-coumarin) and other components to give the final assay concentrations in a reaction volume of 200 μL. Reactions were terminated after various times (a specific time for each cytochrome) by addition of STOP solution (ACN/Tris–HCl 0.5 M 80:20, and NaOH 2 N for CYP3A4). Fluorescence per well was measured using a fluorescence plate reader (Tecan Infinite M1000 PRO), and percentage of inhibition was calculated. In silico predictions were performed using free web-based models (FAME 3, SmartCYP, and Xenosite).[62]−[64]

T3 sequence (P08684 whole entry): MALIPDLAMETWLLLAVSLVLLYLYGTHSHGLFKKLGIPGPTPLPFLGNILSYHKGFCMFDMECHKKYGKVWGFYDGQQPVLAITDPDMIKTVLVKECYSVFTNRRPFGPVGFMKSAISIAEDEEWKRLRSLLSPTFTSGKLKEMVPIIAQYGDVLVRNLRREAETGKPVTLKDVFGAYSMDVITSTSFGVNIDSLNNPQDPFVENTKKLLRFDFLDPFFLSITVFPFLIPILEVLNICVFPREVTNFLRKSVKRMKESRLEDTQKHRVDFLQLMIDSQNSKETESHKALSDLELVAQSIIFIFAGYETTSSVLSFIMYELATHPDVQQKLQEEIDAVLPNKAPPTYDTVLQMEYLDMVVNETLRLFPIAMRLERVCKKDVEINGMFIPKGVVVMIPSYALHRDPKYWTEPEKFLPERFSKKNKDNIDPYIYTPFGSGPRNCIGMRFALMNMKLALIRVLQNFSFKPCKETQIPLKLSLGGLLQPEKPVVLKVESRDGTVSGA

| Compound | CYP3A4 % inh. at 10 μM, 7-BFC [%] |
| --- | --- |
| CC1=C(C(=O)OC(C)C)C(c2ccco2)n2c(nc3ccc(Cl)cc32)N1 (stereo not shown) [15j] | 11 |

same assay, conditions: 10 μM, substrate dibenzylfluorescein

| Compound | CYP3A4 % inh. at 10 μM, DBF [%] |
| --- | --- |
| CC1=C(C(=O)OC(C)C)C(c2ccco2)n2c(nc3ccc(Cl)cc32)N1 (stereo not shown) [15j] | 47 |

same assay, conditions: substrate 7-benzyloxy-4-trifluoromethyl-coumarin; IC50 obtained by extrapolation with analysis software; read-out: CYP3A4 IC50, 7-BFC

| Compound | IC50 [nM] |
| --- | --- |
| CC1=C(C(=O)OC(C)C)C(c2ccco2)n2c(nc3ccc(Cl)cc32)N1 (stereo not shown) [15j] | > 10000 |

same assay, conditions: substrate dibenzylfluorescein; IC50 obtained by extrapolation with analysis software; read-out: CYP3A4 IC50, DBF

| Compound | IC50 [nM] |
| --- | --- |
| CC1=C(C(=O)OC(C)C)C(c2ccco2)n2c(nc3ccc(Cl)cc32)N1 (stereo not shown) [15j] | > 10000 |

target: A2B; test: not given; details: Figure 1, representative A2B antagonists ref 28-32; read-out: Ki; cited from earlier work

| Compound | Ki [nM] |
| --- | --- |
| CCCn1c(=O)c2[nH]c(-c3cnn(Cc4cccc(C(F)(F)F)c4)c3)nc2n(CCC)c1=O [CVT-7124] | 6 |
| CCOC(=O)C1=C(C)Nc2nc3ccccc3n2C1c1cocn1 (stereo not shown) [IX] | 8.1 |
| c1cncc(Nc2ncc(-c3ccncn3)c(-c3ccco3)n2)c1 [LAS38096, 4′-(2-Furyl)-N-Pyridin-3-Yl-4,5‘-Bipyrimidin-2‘-Amine] | 17 |
| CCCn1c(=O)[nH]c2nc(-c3ccc(S(=O)(=O)N4CCN(c5ccc(Br)cc5)CC4)cc3)[nH]c2c1=O [PSB-1901] | 0.083 |
| CC1=C(C(=O)OC(C)C)C(c2ccco2)NC(=S)N1 (stereo not shown) [SYAF030] | 10.2 |
| O=c1c(-c2ccccc2)nnc2n(-c3ccccc3)c3ccc(Cl)cc3n12 [compound 5] | 1.4 |

same assay, conditions: Table 8 ref 28; read-out: hA2B Ki; cited from earlier work

| Compound | Ki [nM] |
| --- | --- |
| PSB-603 | 0.553 |

target: T4, hA2BAR (Homo sapiens, UniProt P29275); test: Radioligand binding competition, [3H]DPCPX, membranes from HEK-293-A2B cells; design: Exp. dG: unit not given here; details: displacement of specific [3H]DPCPX binding in human HEK-293 cells, n = 3; read-out: Ki hA2B
T4 construct: host or cells: HEK-293 (HEK-293-A2B) cell membranes
T4 sequence (P29275 1-332): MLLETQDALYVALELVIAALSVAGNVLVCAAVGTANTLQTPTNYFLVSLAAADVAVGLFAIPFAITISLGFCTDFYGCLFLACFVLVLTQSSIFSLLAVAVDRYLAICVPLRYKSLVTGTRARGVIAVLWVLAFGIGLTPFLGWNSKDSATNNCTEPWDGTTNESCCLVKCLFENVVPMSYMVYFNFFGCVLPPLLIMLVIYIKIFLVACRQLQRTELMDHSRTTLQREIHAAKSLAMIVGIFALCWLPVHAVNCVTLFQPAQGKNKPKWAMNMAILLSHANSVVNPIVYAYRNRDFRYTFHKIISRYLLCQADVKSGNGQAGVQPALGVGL
How it was run: as §1

| Compound | Ki [nM] |
| --- | --- |
| CC1=C(C(=O)OC(C)C)C(c2ccco2)n2c(nc3ccc(Cl)cc32)N1 (stereo not shown) [15j] | 44.3 ± 1.4 |

same assay, conditions: experimental binding free energy, Supplementary Table S3; unit not given (errors in kcal/mol)

| Compound | Exp. dG |
| --- | --- |
| CC1=C(C(=O)OC(C)C)C(c2ccco2)n2c(nc3ccc(Cl)cc32)N1 (stereo not shown) [15j] | -10.03 |
| CC1=C(C(=O)OC(C)C)C(c2ccoc2)n2c(nc3ccccc32)N1 (stereo not shown) [IV] | -10.83 |

tested on: not listed separately; test: Human microsomal stability; type: in vitro ADME; details: human microsomes, sampling time 60 min
Protocol: The human microsomal stability of selected compounds was evaluated by following a previously described method.[31] The human microsomes employed were purchased from Tebu-Xenotech. The compound was incubated with the microsomes at 37 °C in a 50 mM phosphate buffer (pH = 7.4) containing 3 mM MgCl2, 1 mM NADP, 10 mM glucose-6-phosphate, and 1 U/mL glucose-6-phosphate-dehydrogenase. Samples (75 μL) were taken from each well at 0, 10, 20, 40, and 60 min and transferred to a plate containing 4 °C 75 μL acetonitrile and 30 μL of 0.5% formic acid in water was added for improving the chromatographic conditions. The plate was centrifuged (46,000 g, 30 min), and supernatants were taken and analyzed in a UPLC-MS/MS (Xevo TQD, Waters) by employing a BEH C18 column and an isocratic gradient of 0.1% formic acid in water:0.1% formic acid acetonitrile (60:40). The metabolic stability of the compounds was calculated from the logarithm of the remaining compounds at each of the time point studied.

| Compound | microsomal stability percent (percentage remanent) [%] |
| --- | --- |
| CC1=C(C(=O)OC(C)C)C(c2ccco2)n2c(nc3ccc(Cl)cc32)N1 (stereo not shown) [15j] | 16.83 |

same assay, conditions: human, human microsomes, pH 7.4; read-out: microsomal stability Clint (intrinsic clearance)

| Compound | microsomal CLint at 1 h [µL/min/mg] |
| --- | --- |
| CC1=C(C(=O)OC(C)C)C(c2ccco2)n2c(nc3ccc(Cl)cc32)N1 (stereo not shown) [15j] | 26.4 |

same assay, conditions: human, human microsomes, pH 7.4; read-out: microsomal stability t1/2

| Compound | half-life at 1 h [min] |
| --- | --- |
| CC1=C(C(=O)OC(C)C)C(c2ccco2)n2c(nc3ccc(Cl)cc32)N1 (stereo not shown) [15j] | 21.1 |
| C[C@]12CC[C@H]3[C@@H](CCC4=CC(=O)CC[C@@]43C)[C@@H]1CC[C@@H]2O [testosterone, reference compound] | 16.1 |

target: T5, hA2AAR (Homo sapiens, UniProt P29274); test: Radioligand binding competition, [3H]ZM241385, membranes from HeLa-A2A cells; details: 1 μM, [3H]ZM241385, human HeLa cells, n = 2
T5 construct: expressed in transfected cells; host or cells: HeLa (HeLa-A2A) cell membranes
How it was run: as §1

T5 sequence (P29274 whole entry): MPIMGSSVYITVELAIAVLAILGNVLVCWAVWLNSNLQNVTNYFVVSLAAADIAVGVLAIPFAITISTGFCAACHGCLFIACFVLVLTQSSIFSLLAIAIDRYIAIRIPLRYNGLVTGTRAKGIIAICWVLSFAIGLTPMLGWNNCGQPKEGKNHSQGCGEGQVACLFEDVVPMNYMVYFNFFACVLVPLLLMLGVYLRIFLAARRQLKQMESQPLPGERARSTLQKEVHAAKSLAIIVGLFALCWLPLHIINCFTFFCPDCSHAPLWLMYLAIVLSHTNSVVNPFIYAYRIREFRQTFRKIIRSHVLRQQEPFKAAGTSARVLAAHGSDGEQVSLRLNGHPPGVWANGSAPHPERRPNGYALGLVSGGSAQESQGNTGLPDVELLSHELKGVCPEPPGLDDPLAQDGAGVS

| Compound | % at 1 μM hA2A (percentage displacement of specific binding) [%] |
| --- | --- |
| CC1=C(C(=O)OC(C)C)C(c2ccco2)n2c(nc3ccc(Cl)cc32)N1 (stereo not shown) [15j] | 17 |
